This is an account of results in patent US20100022483A1, “Substituted Tetracycline Compounds” (Paratek Pharmaceuticals, Inc., priority 2008, published 2010).

Data set [1] in a line: Mammalian cytotoxicity assay (resazurin), COS-1 cells. It is filed as cell-based. The note with it: African green monkey, read-out: Cytotox. COS-1. The procedure, abridged:
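Resazurin read-out (0.042 mg/ml, 2 h at 37° C. then 30 min dark, room temperature; fluorescence 535/590 nm) follows 24-hour compound exposure of overnight-seeded cells, serially diluted. IC50 is the concentration giving 50% growth inhibition.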
Background: The colour change of resazurin is a common sign of viable cells or microbes.

Another data set relates to gram negative bacteria. Put plainly: In vitro anti-bacterial activity assay (broth dilution MIC), gram negative bacteria. In kind it is cell-based, E. coli. The procedure, abridged: (§1)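 Broth dilution MIC following CLSI M7-A2: compounds serially diluted, log-phase test strains added to final ~5×10^5 CFU/ml, incubated ~18 hours at 35° C in ambient air. Plates read on microplate reader or visually; MIC is lowest concentration inhibiting growth.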
On the technique in general: In broth dilution the organism is exposed to a series of concentrations in liquid medium.

The next data set can be described thus: in vitro. It is filed as cell-based. The note with it: Chinese hamster, Cytotox. CHO-K1.
The subject of another data set is gram positive bacteria. Briefly: In vitro anti-bacterial activity assay (broth dilution MIC), gram positive bacteria. In kind it is cell-based, S. aureus. Particulars: 18 h. The procedure, abridged:
as §1

A further data set deals with 3T3 fibroblast cells. Briefly: In vitro phototoxicity assay (neutral red; UV light-treated vs dark control plates). The note with it: for Photo Toxicity UV Tox50: UV light 50 minutes; for Photo Toxicity Dark Tox50: dark control plate. In kind it is cell-based. The procedure, abridged:
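Neutral red viability readout (A535 after EtOH/acetic acid extraction) compares paired plates: one exposed 50 min to UV at 1.6–1.8 mW/cm^2, one held in darkness, both dosed with compound in HBSS and recovered overnight. 3T3 fibroblast cells used; phototoxicity taken as the difference.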

The mark [2] stands for this setting: Escherichia coli, 18 h, E. coli D1 209, read-out: Median MIC's G− E. coli D1 209.
Where [3] appears, read: Escherichia coli, 18 h, E. coli MG 1655, read-out: Median MIC's G− E. coli MG 1655.
Where [4] appears, read: Escherichia coli, ATCC25922, 18 h, E. coli ATCC 25922, read-out: Median MIC's G− E. coli ATCC 25922.
The mark [5] stands for this setting: Pseudomonas aeruginosa, 18 h, P. aeruginosa K201 PAO6609, read-out: Median MIC's G− P. aeruginosa K201 PAO6609.
Where [6] appears, read: Staphylococcus aureus, S. aureus MRSA5, read-out: Median MIC's G+ S. aureus MRSA5.
Where [7] appears, read: Staphylococcus aureus, S. aureus RN450, read-out: Median MIC's G+ S. aureus RN450.
The mark [8] stands for this setting: Streptococcus pneumoniae, S. pneumoniae 157E-Strep, read-out: Median MIC's G+ S. pneumoniae 157E-Strep.

Values after ≈ are worked out from the molar mass of the structure shown. Where two headings read alike, the source gives them in different places. Bounds are passed on as bounds.

In the case of `CN(C)[C@@H]1C(O)=C(C(N)=O)C(=O)[C@@]2(O)C(O)=C3C(=O)c4c(O)ccc(-c5cccc(CCCN6CCCCC6)c5)c4C[C@H]3C[C@@H]12` [DI], the IC50 at 24 h in data set [1] amounted to 59.4 µM; in the data set “in vitro”, 54.1 µM. Besides, the MIC in the data set with gram negative bacteria (setting [2]) worked out at 2 µg/mL (≈ 3.25 µM); with gram negative bacteria (setting [3]) it was 4 µg/mL (≈ 6.5 µM); with gram negative bacteria (setting [4]), 1 µg/mL (≈ 1.62 µM); in the data set with gram negative bacteria (setting [5]), 64 µg/mL (≈ 104 µM); in the data set with gram positive bacteria (setting [6]), 2 µg/mL (≈ 3.25 µM); with gram positive bacteria (setting [7]), 0.0625 µg/mL (≈ 0.102 µM). The MIC in the data set with gram positive bacteria (setting [8]) is 0.06 µg/mL (≈ 0.0974 µM). Besides, the “Photo Toxicity UV Tox50” value with 3T3 fibroblast cells amounted to 45.65 µM. For the same compound, the “Photo Toxicity Dark Tox50” value with 3T3 fibroblast cells is more than 200 µM.
On to `COCCNCc1ccoc1-c1ccc(O)c2c1C[C@H]1C[C@H]3[C@H](N(C)C)C(O)=C(C(N)=O)C(=O)[C@@]3(O)C(O)=C1C2=O` [BQ], for which the IC50 at 24 h (in data set [1]; in the data set “in vitro”) was more than 141 µM throughout. Also, the MIC was found to be 64 µg/mL (≈ 113 µM) in the data set with gram negative bacteria (setting [2]); 1 µg/mL (≈ 1.76 µM) in the data set with gram negative bacteria (setting [3]); 1 µg/mL (≈ 1.76 µM) in the data set on gram negative bacteria (setting [4]); 64 µg/mL (≈ 113 µM) in the data set with gram negative bacteria (setting [5]); 4 µg/mL (≈ 7.05 µM) in the data set with gram positive bacteria (setting [6]); 0.06 µg/mL (≈ 0.106 µM) in the data set with gram positive bacteria (setting [7]). In the data set with gram positive bacteria (setting [8]), the MIC turned out to be 0.06 µg/mL (≈ 0.106 µM). Moreover, the “Photo Toxicity UV Tox50” value in the data set with 3T3 fibroblast cells was more than 140.51 µM. For the same compound, the “Photo Toxicity Dark Tox50” value in the data set on 3T3 fibroblast cells is more than 140.51 µM.
Turning to `CN(C)[C@@H]1C(O)=C(C(N)=O)C(=O)[C@@]2(O)C(O)=C3C(=O)c4c(O)ccc(-c5cccc(C(=O)NCCN6CCOCC6)c5)c4CC3CC12` (some centres unmarked) [DC], the IC50 at 24 h (in data set [1]; in the data set “in vitro”) was more than 13.6 µM each time. Also, the MIC stood at 64 µg/mL (≈ 99 µM) in the data set with gram negative bacteria (setting [2]); 8 µg/mL (≈ 12.4 µM) with gram negative bacteria (setting [3]); 16 µg/mL (≈ 24.7 µM) in the data set on gram negative bacteria (setting [4]); 64 µg/mL (≈ 99 µM) in the data set on gram negative bacteria (setting [5]); 4 µg/mL (≈ 6.19 µM) with gram positive bacteria (setting [6]); 0.125 µg/mL (≈ 0.193 µM) in the data set with gram positive bacteria (setting [7]). Besides, in the data set on gram positive bacteria (setting [8]), the MIC came out at 0.125 µg/mL (≈ 0.193 µM). For the same compound, the “Photo Toxicity UV Tox50” value with 3T3 fibroblast cells is more than 136.18 µM. For the same compound, in the data set with 3T3 fibroblast cells, the “Photo Toxicity Dark Tox50” value was more than 136.18 µM.
Turning to `CN(C)[C@@H]1C(O)=C(C(N)=O)C(=O)[C@@]2(O)C(O)=C3C(=O)c4c(O)ccc(C(=O)CNCC(N)=O)c4C[C@H]3C[C@@H]12` [BZ], the IC50 at 24 h (in data set [1]; in “in vitro”) was more than 119 µM in each case. In addition, the MIC with gram negative bacteria (setting [2]) came to 64 µg/mL (≈ 121 µM); with gram negative bacteria (setting [3]), 64 µg/mL (≈ 121 µM); in the data set with gram negative bacteria (setting [4]), 64 µg/mL (≈ 121 µM); in the data set with gram negative bacteria (setting [5]), 64 µg/mL (≈ 121 µM); in the data set on gram positive bacteria (setting [6]) it was 64 µg/mL (≈ 121 µM); in the data set on gram positive bacteria (setting [7]), 4 µg/mL (≈ 7.57 µM). Also, the MIC in the data set with gram positive bacteria (setting [8]) is 4 µg/mL (≈ 7.57 µM). For the same compound, the “Photo Toxicity UV Tox50” value in the data set on 3T3 fibroblast cells is more than 118.96 µM. In addition, the “Photo Toxicity Dark Tox50” value with 3T3 fibroblast cells was more than 118.96 µM.
For `CN(C)[C@@H]1C(O)=C(C(N)=O)C(=O)[C@@]2(O)C(O)=C3C(=O)c4c(O)ccc(C(=O)CNCC(F)(F)F)c4C[C@H]3C[C@@H]12` [BT], the IC50 at 24 h (in data set [1]; in the data set “in vitro”) was more than 47 µM each time. The MIC is 64 µg/mL (≈ 116 µM) in the data set with gram negative bacteria (setting [2]); 8 µg/mL (≈ 14.5 µM) in the data set on gram negative bacteria (setting [3]); 2 µg/mL (≈ 3.61 µM) with gram negative bacteria (setting [4]); 64 µg/mL (≈ 116 µM) with gram negative bacteria (setting [5]); 2 µg/mL (≈ 3.61 µM) with gram positive bacteria (setting [6]); 0.06 µg/mL (≈ 0.108 µM) in the data set with gram positive bacteria (setting [7]). Further, in the data set on gram positive bacteria (setting [8]), the MIC is 0.06 µg/mL (≈ 0.108 µM). Moreover, the “Photo Toxicity UV Tox50” value in the data set with 3T3 fibroblast cells is more than 151.65 µM. The “Photo Toxicity Dark Tox50” value in the data set on 3T3 fibroblast cells was more than 151.65 µM.
For `CN(C)CC(=O)Nc1cccc(-c2ccc(O)c3c2C[C@H]2C[C@H]4[C@H](N(C)C)C(O)=C(C(N)=O)C(=O)[C@@]4(O)C(O)=C2C3=O)c1` [K, (4S,4aS,5aR,12aS)-4-Dimethylamino-7-[3-(2-dimethylamino-acetylamino)-phenyl]-3,10,12,12a-tetrahydroxy-1,11-dioxo-1,4,4a,5,5a,6,11,12a-octahydro-naphthacene-2-carboxylic acid amide], the IC50 at 24 h (in data set [1]; in the data set “in vitro”) was more than 12.8 µM in each case. The MIC with gram negative bacteria (setting [2]) stood at 2 µg/mL (≈ 3.39 µM); in the data set on gram negative bacteria (setting [3]) it was 2 µg/mL (≈ 3.39 µM); in the data set with gram negative bacteria (setting [4]) it was 1 µg/mL (≈ 1.69 µM); with gram negative bacteria (setting [5]), 64 µg/mL (≈ 108 µM); with gram positive bacteria (setting [6]), 2 µg/mL (≈ 3.39 µM); in the data set on gram positive bacteria (setting [7]), 0.06 µg/mL (≈ 0.102 µM). For the same compound, the MIC with gram positive bacteria (setting [8]) was 0.06 µg/mL (≈ 0.102 µM). Besides, the “Photo Toxicity UV Tox50” value in the data set with 3T3 fibroblast cells was more than 128.09 µM. In the data set with 3T3 fibroblast cells, the “Photo Toxicity Dark Tox50” value was more than 128.09 µM.
Consider `CN(C)[C@@H]1C(O)=C(C(N)=O)C(=O)[C@@]2(O)C(O)=C3C(=O)c4c(O)ccc(-c5cccc(/C=C/C#N)c5)c4C[C@H]3C[C@@H]12` [CO], for which the IC50 at 24 h in data set [1] was 7.77 µM; in “in vitro”, 9.41 µM. Further, the minimum inhibitory concentration (MIC) in the data set on gram negative bacteria (setting [2]) was determined as 64 µg/mL (≈ 118 µM); in the data set with gram negative bacteria (setting [3]) it was 64 µg/mL (≈ 118 µM); with gram negative bacteria (setting [4]), 64 µg/mL (≈ 118 µM); in the data set with gram negative bacteria (setting [5]) it was 64 µg/mL (≈ 118 µM); in the data set with gram positive bacteria (setting [6]), 0.5 µg/mL (≈ 0.923 µM); in the data set on gram positive bacteria (setting [7]), 0.0625 µg/mL (≈ 0.115 µM). Besides, in the data set on gram positive bacteria (setting [8]), the MIC came to 0.06 µg/mL (≈ 0.111 µM). In the data set with 3T3 fibroblast cells, the “Photo Toxicity UV Tox50” value is more than 164.35 µM. For the same compound, the “Photo Toxicity Dark Tox50” value in the data set with 3T3 fibroblast cells was more than 164.35 µM.

In general, MIC refers to the lowest concentration that inhibits growth of the organism.
